{"source": "paper PMC9145755", "about": "“A Small Peptide Increases Drug Delivery in Human Melanoma Cells” (Pharmaceutics, 2022)", "key": {"[1]": {"tested_on": "A375 melanoma cells", "experiment": "In vitro cytotoxicity, MTT colorimetric assay", "type": "cell-based, human", "experimental": "Cells were seeded in a 96-well plate and allowed to adhere overnight prior to adding the compound [29]. After 72 h of treatment in serum-free media, an MTT solution was added to each well to give a final concentration of 0.5 mg/mL and was incubated for 3 h. Formed crystals were solubilized, and their absorbance was measured at 595 nm."}, "[2]": {"tested_on": "A375 human melanoma xenograft", "experiment": "In vivo xenograft melanoma mouse model", "details": "KK-11 alone, in vivo studies", "experimental": "The study was carried out in compliance with the ARRIVE guidelines. All the animal studies and procedures were approved by the IACUC at Chapman University and conducted in compliance with the policies of Chapman University, in addition to those of federal, state, and local animal welfare authorities. Nude mice (NU/NU) were purchased from Charles River (Wilmington, MA, USA) and were housed and maintained in the Chapman University vivarium under pathogen-free conditions. A375 cells were suspended in cold Matrigel and injected subcutaneously into the flank of each mouse (1 × 10^6 cells per mouse) to establish tumors. The mice were treated by tail vein injections of 1× PBS, D-aa KK-11 alone (1.75 mg/kg), MAC-3-190 (5 mg/kg) alone, or D-aa KK-11 and MAC-3-190 co-treatment for 21 days. For the co-treatment, the solution of D-aa KK-11 and MAC-3-190 (1:11 molar ratio) was mixed gently and incubated at room temperature for 30 min before tail vein injection. The growth of the tumors was monitored three times a week and measured using digital Vernier calipers. The tumor volume (mm^3) was calculated as [Length × (Width^2)]/2 (in mm). The mice were sacrificed after 21 days per IACUC policy when the control group’s average tumor size reached 2000 mm^3. Tumor xenografts were removed and weighed."}, "[3]": {"experiment": "Serum stability (human serum, RP-HPLC)", "type": "in vitro ADME", "details": "human serum incubation, 37 °C, data not shown", "experimental": "Human serum (250 µL) was thawed to room temperature and was added to DMEM media (650 µL). The mixture was kept in a 37 °C incubator to mimic human body temperature for 15 min. The peptide (100 µL, 1 mM) was dissolved (dispersed) in sterile water. The peptide solution was added to the pre-warmed human serum and DMEM mixture. The mixture was incubated at 37 °C. At different time points (0, 0.5, 1, 5, and 24 h) aliquots (100 µL) were removed and added to methanol (200 µL). Each time point sample was kept at 4 °C for 5 min, and then was centrifuged at 500× g for 15 min to separate serum proteins. The supernatant was injected into the RP-HPLC, and the major peaks were collected. The peak’s mass was determined using MALDI-TOF mass analysis. The serum stabilities of the D-aa KK-11 were determined by comparing the HPLC peaks (AUC) for the intact peptides at different time points."}, "[4]": {"tested_on": "A375 melanoma cells", "experiment": "Fluorescence microscopy of peptide uptake", "type": "cell-based, human", "details": "0.5 µM, 30 min incubation, confocal microscopy, DAPI nuclei", "experimental": "A375 melanoma cells were plated on coverslips and allowed to adhere overnight to 75% confluence, then incubated with 0.5 µM of FITC-KK-11 for 30 min at room temperature. After treatment, cells were washed three times in 1× PBS then fixed with 4% formaldehyde in 1× PBS for 15 min at room temperature. Fixed cells were then washed three times in 1× PBS for 5 min each, followed by curing in the dark with ProLong™ Gold Antifade Mountant with DAPI (P36935, Life Technologies Corporation, Eugene, OR, USA) for 1 h. Slides were visualized and recorded using the Nikon Eclipse Ti2-E confocal microscopy system (Nikon, Melville, NY, USA) using green and blue filters with 60× magnification."}, "[5]": {"tested_on": "human melanoma cells (wm3211, Sk-mel-28, A375)", "experiment": "In vitro cellular uptake of FITC-labeled peptides by flow cytometry", "type": "cell-based", "details": "FITC-labeled peptides 0.5 and 1 µM, A375, Sk-mel-28, wm3211, compared with FITC alone", "experimental": "The peptide (FITC-labeled) concentration was determined using a Shimadzu BioSpec-nano Micro-volume UV-Vis spectrophotometer (Shimadzu, Kyoto, Japan). Human melanoma cells (wm3211, Sk-mel-28, and A375) were incubated with FITC or FITC-labeled peptides at final concentrations of 0.5 µM and 1 µM for 2 h. After thorough washing with cold 1× PBS, the melanoma cells in a single cell suspension were collected for flow cytometry analysis (BD FACSVerse, BD Biosciences, Franklin Lakes, NJ, USA). The mean fluorescence density of 10,000 cells was analyzed and compared to that of control cells, as described previously."}, "[6]": {"tested_on": "athymic nude mice bearing human melanoma A375 tumors", "experiment": "In vivo and ex vivo imaging (biodistribution) in mice bearing A375 tumors", "details": "8 µg per mouse", "experimental": "The study was carried out in compliance with Animal Research: Reporting of In Vivo Experiments (ARRIVE) guidelines. All the animal procedures were approved by the Institutional Animal Care and Use Committee (IACUC) at Chapman University and conducted in compliance with the policies of Chapman University, in addition to those of federal, state, and local animal welfare authorities. Male and female athymic nude mice (4–6 weeks old) were kept (5 in each cage) in a pathogen-free environment. Approximately 1 million human melanoma A375 cells (0.1 mL in normal saline), mixed with 0.1 mL cold Matrigel (#354248; Corning, Corning, NY, USA), were injected subcutaneously into the flank. The tumor size was measured with a caliper, and body weight was recorded once a week. When the tumor size reached approximately 800–1000 mm^3, as calculated using the following formula: [Length × (Width^2)]/2 (in mm), mice were processed for in vivo or ex vivo imaging.\nFor in vivo imaging, normal saline or VivoTag-KK-11 at a dose of 8 µg per mouse was injected into the mice via the tail vein (n = 2 for each time point). The animals were then scanned at different time intervals (0.5, 2, 6, and 24 h) using an IVIS Spectrum in vivo imaging system (PerkinElmer, Waltham, MA, USA). The mice were imaged for 0.5 s, 10 bin, level B at an emission wavelength of 688 ± 5 nm. Imaging was limited to no more than once a day and was conducted under continuously maintained isoflurane. Mice were maintained on alfalfa-free diets to minimize the background fluorescence. All the study animals survived through the in vivo imaging procedure.\nFor ex vivo imaging at defined time intervals (5, 15, 30 min, followed by 1, 1.5, 2, 3, 4, 6, 24, and 48 h) following fluorescence conjugate injection, animals were euthanized via carbon dioxide inhalation (n = 2 for each time point); tumor, liver, spleen, heart, lungs, brain, and kidneys were collected and briefly rinsed with saline. The organs were then imaged for 0.5 s, 10 bin, level B at an emission wavelength of 688 ± 5 nm using an IVIS Spectrum imaging system."}}, "note": "Where a SMILES comes first, the peptide text is derived from it. [ ]: non-standard residue; d: D form. Nle = CCCC[C@H](N)C(=O)O"}
{"molecule": "COc1cccc2c1C(=O)c1c(O)c3c(c(O)c1C2=O)C[C@@](O)(C(=O)CO)C[C@@H]3O[C@H]1C[C@H](N)[C@H](O)[C@H](C)O1", "note": "[DOX, doxorubicin, reference compound]", "values": [{"measurement": "Cell viability, % of control", "setting": "[1]; A375, DOX 0.5 µM alone, 72 h, serum-free media, MTT", "result": "62 % of control"}, {"measurement": "Cell viability (cells survived), % of control", "setting": "[1]; A375, DOX 1 µM alone, 72 h, MTT", "result": 24, "unit": "%"}]}
{"molecule": "CCCC[C@H](NC(=O)[C@H](Cc1c[nH]c2ccccc12)NC(=O)[C@@H]1CCCN1C(=O)[C@@H](N)C(C)C)C(=O)N[C@@H](CCC(=O)O)C(=O)N1CCC[C@H]1C(=O)N[C@@H](C)C(=O)N[C@@H](Cc1ccc(O)cc1)C(=O)N[C@@H](CCC(N)=O)C(=O)N[C@@H](CCCNC(=N)N)C(=O)N[C@@H](Cc1ccccc1)C(=O)N[C@@H](CC(C)C)C(N)=O", "note": "[KK-11] (H-VPW[Nle]EPAYQRFL-NH2)", "values": [{"measurement": "Cytotoxicity of peptide alone, in vivo", "setting": "[2]", "result": "No cytotoxicity"}, {"measurement": "Enhancement of MAC-3-190 cytotoxicity by KK-11 co-treatment", "setting": "[1]; A375, KK-11 1 µM with MAC-3-190 at 25% IC50, 50% IC50, IC50 and 2× IC50, 72 h, MTT, vs MAC-3-190 alone", "result": "did not observe any significant enhancement of cytotoxicity"}, {"measurement": "Effect of sequential KK-11 then DOX treatment on DOX cytotoxicity", "setting": "[1]; A375, pretreated with KK-11 for 4 h, washed away, then DOX 72 h, MTT", "result": "failed to produce any changes on DOX cytotoxicity"}, {"measurement": "Cytotoxicity of peptide alone, in vitro", "setting": "[1]; KK-11 alone, in vitro studies", "result": "No cytotoxicity"}, {"measurement": "Time to undetectable level of intact peptide in human serum", "setting": "[3]", "result": "≤ 30", "unit": "min"}]}
{"molecule": "FITC-Aβ-VPWXEPAYQRFL [FITC-KK-11, KK-11 labeled with FITC at the N-terminus via β-alanine spacer]", "values": [{"measurement": "Cellular localisation of FITC-labeled peptide", "setting": "[4]", "result": "present in the cytoplasm"}, {"measurement": "Uptake of FITC-labeled peptide by melanoma cells", "setting": "[5]", "result": "highest"}]}
{"molecule": "VivoTag-Aβ-VPWxEPAYQrFL [VivoTag-KK-11, VivoTag 680 XL labeled D-amino acid analogue of KK-11]", "values": [{"measurement": "Time post injection up to which fluorescence remained detectable in tumor xenografts, ex vivo imaging", "setting": "[6]; IV tail vein, A375 xenograft nude mice, excised tumors, IVIS, n = 2 per time point", "result": 24, "unit": "h"}, {"measurement": "Time after injection by which the peptide distributed to the tumor (and lungs, heart, spleen), ex vivo imaging", "setting": "[6]; tail vein, A375 xenograft nude mice, IVIS, n = 2 per time point", "result": "≤ 5", "unit": "min"}, {"measurement": "Brain penetration", "setting": "[6]; tail vein, ex vivo organ imaging", "result": "no brain penetration was observed"}, {"measurement": "Time after injection by which the peptide cleared from other organs", "setting": "[6]; tail vein, ex vivo organ imaging (lungs, heart, spleen)", "result": "≤ 6", "unit": "h"}, {"measurement": "Time after injection up to which the peptide was predominantly detected in kidneys", "setting": "[6]; tail vein, ex vivo organ imaging, after 6 h", "result": 48, "unit": "h"}]}
